Among the test systems are CCRF-CEM leukemia; DU-145 prostate; MDA-MB-435; NCI-H226 lung; NCI/ADR-RES ovarian; OVCAR-5 ovarian; SNB-75 CNS; SW-620 colon; T-47D breast; UO-31 renal.
Common to all, as to experiment: NCI-60 cell line screen, 48 h

Values joined by “and” are separate entries in the source; they are usually repeats but may differ in a detail not shown here. Equal values may be shown once.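 Exposure lasted 48 hours, with cells grown in 96-well plates and compounds tested at five concentrations. Abbreviation: GI50, concentration required for 50% inhibition of growth. TGI: concentration producing complete growth inhibition.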

As to `Cc1nc(NC(=S)Nc2ccc(F)cc2)sc1C(=O)NNC(=S)Nc1ccc(F)cc1`, the GI50 in the assay on CCRF-CEM leukemia was 2.56 µM; with DU-145 prostate, 5.53 µM; in the assay with MDA-MB-435, 7.34 µM; with NCI-H226 lung, 14.1 µM; in the assay with NCI/ADR-RES ovarian, 3.62 µM; with OVCAR-5 ovarian, 16.2 µM. Besides, the GI50 in the assay with SNB-75 CNS was 15.3 µM; in the assay with SW-620 colon, 10.6 µM; with T-47D breast, 2.59 µM; with UO-31 renal, 5.28 µM. Further, the TGI was 15.7 µM in the assay with CCRF-CEM leukemia; 22.3 µM in the assay on DU-145 prostate; 55.2 µM with MDA-MB-435; 57.8 µM with NCI-H226 lung; 18.2 µM in the assay with NCI/ADR-RES ovarian; 62.1 µM in the assay on OVCAR-5 ovarian. In addition, the TGI in the assay with SNB-75 CNS came out at 54.7 µM; with SW-620 colon, 25.2 µM; with T-47D breast, 20.7 µM; in the assay on UO-31 renal, 21 µM.
Consider `CN(/N=N/c1nc(OCc2ccccc2)c2[nH]cnc2n1)C(=O)N(C)/N=N/c1nc(OCc2ccccc2)c2[nH]cnc2n1`, for which the GI50 with CCRF-CEM leukemia is 49.6 µM; in the assay on DU-145 prostate, 38.9 µM; in the assay on MDA-MB-435 it was 49.1 µM; in the assay on NCI-H226 lung, 38.5 µM; in the assay with NCI/ADR-RES ovarian it was 47.2 µM; in the assay on OVCAR-5 ovarian, 63.7 µM. For the same molecule, the GI50 with SNB-75 CNS is > 100 µM; in the assay with SW-620 colon, 71.7 µM; in the assay on T-47D breast, 39.6 µM; with UO-31 renal it was 36.1 µM. The TGI with CCRF-CEM leukemia, with DU-145 prostate, with MDA-MB-435, in the assay on NCI-H226 lung, in the assay with NCI/ADR-RES ovarian and in the assay with OVCAR-5 ovarian was > 100 µM in each case. Also, the TGI with SNB-75 CNS, in the assay with SW-620 colon, in the assay on T-47D breast and in the assay with UO-31 renal was > 100 µM in each case.
Regarding `CC1(C)N=C(N)N=C(N)N1c1cccc(CCCCc2ccc(S(=O)(=O)F)cc2Cl)c1`, the GI50 in the assay with CCRF-CEM leukemia is 3.29 µM; in the assay with DU-145 prostate it was 4.06 µM; with MDA-MB-435 it was 0.611 µM; in the assay on NCI-H226 lung, 9.37 µM; in the assay on NCI/ADR-RES ovarian, 76 µM; in the assay with OVCAR-5 ovarian, 6.29 µM. Further, the GI50 in the assay on SNB-75 CNS is 2.74 µM; with SW-620 colon, 0.701 µM; in the assay on T-47D breast, 14 µM; in the assay with UO-31 renal it was 14.6 µM. Also, the TGI with CCRF-CEM leukemia is 36.5 µM; with DU-145 prostate it was > 59.8 µM; in the assay on MDA-MB-435, 18.5 µM; in the assay on NCI-H226 lung, 50.6 µM; in the assay on NCI/ADR-RES ovarian it was > 100 µM; in the assay on OVCAR-5 ovarian, > 100 µM. The TGI with SNB-75 CNS was 23.9 µM; in the assay with SW-620 colon it was > 39.8 µM; in the assay with T-47D breast, 34.5 µM; with UO-31 renal it was > 100 µM.
For the molecule `Cc1ccc(NC2=C(Sc3ccc(Cl)cc3)C(=O)N(Cc3ccccc3)C2=O)cc1Cl`, the GI50 in the assay on CCRF-CEM leukemia is 11.1 µM; with DU-145 prostate it was 3.98 µM; in the assay on MDA-MB-435, 22 µM; in the assay on NCI-H226 lung, 4.23 µM; with NCI/ADR-RES ovarian, 10.4 µM; with OVCAR-5 ovarian it was 10.5 µM. In addition, the GI50 with SNB-75 CNS was 3.92 µM; with SW-620 colon, 6.01 µM; with T-47D breast it was 5.32 µM; with UO-31 renal, 8.73 µM. Also, the TGI is 23.1 µM with CCRF-CEM leukemia; 24.6 µM in the assay with DU-145 prostate; > 100 µM with MDA-MB-435; 19.9 µM in the assay with NCI-H226 lung; 29.7 µM in the assay on NCI/ADR-RES ovarian; 25.1 µM with OVCAR-5 ovarian. In addition, the TGI in the assay with SNB-75 CNS worked out at 19.4 µM; with SW-620 colon, 36.2 µM; in the assay on T-47D breast, 66.4 µM; in the assay with UO-31 renal it was 22.1 µM.
As to `Cc1ccc(NS(=O)(=O)c2cc(C)ccc2C)cc1`, the GI50 in the assay with CCRF-CEM leukemia was 6.19 µM; with DU-145 prostate it was 6.17 µM; in the assay on MDA-MB-435, 0.351 µM; in the assay on NCI-H226 lung, 15.3 µM; with NCI/ADR-RES ovarian, 1.38 µM; with OVCAR-5 ovarian, 15.4 µM. Moreover, the GI50 is 3.15 µM in the assay on SNB-75 CNS, 2.58 µM in the assay with SW-620 colon, 6.09 µM in the assay on T-47D breast and 12.1 µM with UO-31 renal. Further, the TGI is > 100 µM in the assay with CCRF-CEM leukemia; 28.1 µM in the assay on DU-145 prostate; 2.57 µM in the assay with MDA-MB-435; 70.4 µM in the assay with NCI-H226 lung; 8.95 µM in the assay with NCI/ADR-RES ovarian; 72.4 µM with OVCAR-5 ovarian. In addition, the TGI with SNB-75 CNS is 24.8 µM; with SW-620 colon it was > 100 µM; with T-47D breast, > 100 µM; in the assay on UO-31 renal it was 72 µM.
As to `Cn1c2ccc([N+](=O)[O-])cc2c(=O)c2c(O)cc(O)cc21`, the TGI in the assay on CCRF-CEM leukemia is > 100 µM; in the assay on DU-145 prostate, > 100 µM; in the assay with MDA-MB-435 it was > 100 µM; with NCI-H226 lung, > 100 µM; in the assay on NCI/ADR-RES ovarian, 55 µM; with OVCAR-5 ovarian, > 100 µM. For the same molecule, the TGI in the assay with SNB-75 CNS is 34.7 µM; in the assay on SW-620 colon, > 100 µM; in the assay with T-47D breast, > 100 µM; in the assay with UO-31 renal, > 100 µM.
As to `Cc1c(CN2CCC(Nc3ncnc4sc(CC(F)(F)F)cc34)CC2)ccc2c1cc(C#N)n2Cc1cn[nH]c1`, the GI50 with CCRF-CEM leukemia was 2.98 µM and 2.97 µM; in the assay with DU-145 prostate, 10.3 µM; in the assay on MDA-MB-435, 1.99 µM and 3.78 µM; with NCI-H226 lung, 7.58 µM and 4.31 µM; in the assay with NCI/ADR-RES ovarian it was 4.92 µM and 7.36 µM; in the assay with OVCAR-5 ovarian, 13.2 µM and > 33.4 µM. The GI50 is 8.38 µM and 2.47 µM in the assay with SNB-75 CNS; 1.81 µM and 2.19 µM in the assay on SW-620 colon; 0.897 µM and 1.06 µM with T-47D breast; 2.25 µM and 2.46 µM in the assay with UO-31 renal. Also, the TGI was > 33.7 µM in the assay with CCRF-CEM leukemia; 23.9 µM and > 40.5 µM with DU-145 prostate; 6.15 µM with MDA-MB-435; 40.2 µM and 36.9 µM in the assay on NCI-H226 lung; 20.5 µM and > 25.8 µM with NCI/ADR-RES ovarian; 34.9 µM and > 51 µM with OVCAR-5 ovarian. Moreover, the TGI with SNB-75 CNS was 26.1 µM and 27.7 µM; with SW-620 colon it was 4.97 µM; in the assay with T-47D breast, 16.9 µM; in the assay with UO-31 renal, 20.1 µM and > 41.2 µM.

The values above are taken from PubChem BioAssay (NCI).
